Assay results: US20260061027A1 (NeuroTher, LLC, priority 2024, published 2026)

Assay: In vitro metabolic stability of hepatocytes
Settings: Mouse hepatocytes, 0.5 ×10^6 cells/mL

With `O=c1ccc2ccc(O)cc2o1` [7-Hydroxycoumarin] the “T1/2” value was 3.0 min.
